From ChEMBL document CHEMBL5370659 (J Med Chem, 2023)
≈ marks a conversion by molar mass, not a printed value.

Tests used:
[1] = target: T1, Tryptophan 5-hydroxylase 2 (Homo sapiens, UniProt Q8IWU9); assay: Inhibition of recombinant MBP-tagged full length human THP2 using L-Trp as substrate assessed as formation of 5-HTP by measuring fluorescent property
T1 sequence (Q8IWU9 whole entry): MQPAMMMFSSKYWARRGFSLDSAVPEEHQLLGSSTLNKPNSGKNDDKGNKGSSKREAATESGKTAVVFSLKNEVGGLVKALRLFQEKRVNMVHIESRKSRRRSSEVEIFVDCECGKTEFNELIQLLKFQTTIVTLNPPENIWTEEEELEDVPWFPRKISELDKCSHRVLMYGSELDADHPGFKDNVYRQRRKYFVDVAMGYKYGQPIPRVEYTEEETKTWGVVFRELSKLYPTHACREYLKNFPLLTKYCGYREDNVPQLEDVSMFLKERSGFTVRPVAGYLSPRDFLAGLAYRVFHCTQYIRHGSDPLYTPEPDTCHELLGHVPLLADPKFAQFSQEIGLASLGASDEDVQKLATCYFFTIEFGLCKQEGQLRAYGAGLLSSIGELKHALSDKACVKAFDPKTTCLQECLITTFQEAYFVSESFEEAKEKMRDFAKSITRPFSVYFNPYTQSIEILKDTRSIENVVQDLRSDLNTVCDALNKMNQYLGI

[2] = target: T2, Tryptophan 5-hydroxylase 1 (Homo sapiens, UniProt P17752); assay: Inhibition of recombinant MBP-tagged full length human THP1 using L-Trp as substrate assessed as formation of 5-HTP by measuring fluorescent property
T2 sequence (P17752 whole entry): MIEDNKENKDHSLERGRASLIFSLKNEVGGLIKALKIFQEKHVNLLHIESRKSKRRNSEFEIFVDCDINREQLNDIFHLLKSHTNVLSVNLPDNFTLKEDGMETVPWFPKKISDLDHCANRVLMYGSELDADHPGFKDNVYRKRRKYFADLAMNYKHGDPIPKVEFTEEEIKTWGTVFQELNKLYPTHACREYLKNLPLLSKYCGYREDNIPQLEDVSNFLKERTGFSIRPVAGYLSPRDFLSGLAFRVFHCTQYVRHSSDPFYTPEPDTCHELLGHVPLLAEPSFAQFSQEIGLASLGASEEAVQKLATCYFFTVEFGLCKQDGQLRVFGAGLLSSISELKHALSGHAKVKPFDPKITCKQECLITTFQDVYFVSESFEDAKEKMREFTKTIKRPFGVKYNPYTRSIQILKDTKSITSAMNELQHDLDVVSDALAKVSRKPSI

[3] = Brain homogenate binding in rat; assay type: ADME, tissue-based
[4] = Aqueous solubility of the compound in pH 7.4 PBS buffer by HPLC-UV analysis; assay type: physicochemical
[5] = Permeability across basal to apical side in MDCK-MDR1 cells at pH 6.5/7.4 measured at 5 uM by LC-MS/MS analysis; assay type: ADME, cell-based, Canis lupus familiaris; details: dog, MDCK-MDR1, pH 6.5
[6] = Apparent permeability across apical to basal side in human Caco-2 cells at pH 6.5/7.4 measured at 5 uM by LC-MS/MS analysis; assay type: ADME, cell-based; details: Caco-2, pH 6.5
[7] = Apparent permeability across basal to apical side in human Caco-2 cells at pH 6.5/7.4 measured at 5 uM by LC-MS/MS analysis; assay type: ADME, cell-based; details: Caco-2, pH 6.5
[8] = Plasma protein binding in human; assay type: ADME, cell-free; details: read-out: PPB (converted)
[9] = Brain homogenate binding in mouse; assay type: ADME, tissue-based
[10] = Metabolic stability in rat hepatocytes assessed as intrinsic clearance; assay type: ADME, cell-based, Hepatocyte; details: read-out: CLH
[11] = Metabolic stability in human hepatocytes assessed as half life; assay type: ADME, cell-based, Hepatocyte
[12] = Permeability across apical to basal side in MDCK-MDR1 cells at pH 6.5/7.4 measured at 5 uM by LC-MS/MS analysis; assay type: ADME, cell-based, Canis lupus familiaris; details: dog, MDCK-MDR1, pH 6.5
[13] = Plasma protein binding in rat; assay type: ADME, cell-free; details: read-out: PPB (converted)
[14] = Metabolic stability in human hepatocytes assessed as intrinsic clearance; assay type: ADME, cell-based, Hepatocyte; details: read-out: CLH
[15] = Metabolic stability in rat hepatocytes assessed as half life; assay type: ADME, cell-based, Hepatocyte
[16] = Solubility in simulated gastric fluid by HPLC-UV analysis; assay type: physicochemical
[17] = Solubility in simulated intestinal fluid by HPLC-UV analysis; assay type: physicochemical

| SMILES | IC50 [1] | IC50 [2] | other results |
| --- | --- | --- | --- |
| CCn1c(=O)[nH]c(=O)c2c1nc(Cc1cn3c(n1)CCCC3)n2Cc1cccc(C(=O)NC[C@H](N)C(=O)O)c1 | 176 nM | 1670 nM |  |
| CCn1c(=O)[nH]c(=O)c2c1nc(Cc1cn3cc(Cl)sc3n1)n2CC1COC1 | 37 nM | 118 nM | Activity [3]: < 1%; solubility [4]: 200 µM (≈ 84.2 µg/mL); Papp B→A at 5 µM [5]: 30 ×10⁻⁶ cm/s; Papp A→B at 5 µM [6]: 0.26 ×10⁻⁶ cm/s; Papp B→A at 5 µM [7]: 29 ×10⁻⁶ cm/s; fraction unbound [8]: 0.38; Activity [9]: < 1%; CLint scaled [10]: < 17 mL/min/kg; half-life [11]: > 2.42 h; Papp A→B at 5 µM [12]: < 0.64 ×10⁻⁶ cm/s; fraction unbound [13]: 0.5; CLint scaled [14]: < 8.6 mL/min/kg; half-life [15]: > 2.42 h |
| CCn1c(=O)[nH]c(=O)c2c1nc(Cc1cn3c(n1)CCCC3)n2Cc1cccc(C(=O)NC[C@H](N)C(=O)OC)c1 | 58 nM | 880 nM |  |
| CCn1c(=O)[nH]c(=O)c2c1nc(Cc1cn3c(n1)CCCC3)n2CC1CCC1 | 32 nM | 394 nM |  |
| CCc1nc(C)ccc1OCC(=O)N1CCc2nc3n(c2C1c1ccc(Cl)cc1F)CCCC3 (racemic) | 51 nM | 151 nM |  |
| CCn1c(=O)[nH]c(=O)c2c1nc(Cc1cn3c(n1)CCCC3)n2Cc1cccc(C(=O)NC[C@H](NC(=O)OCc2ccccc2)C(=O)OC)c1 | 63 nM | 380 nM |  |
| CCn1c(=O)[nH]c(=O)c2c1nc(Cc1cn3cc(C)sc3n1)n2Cc1ccc(C(F)(F)F)cc1 | 52 nM | 271 nM |  |
| CCn1c(=O)[nH]c(=O)c2c1nc(Cc1cn3c(n1)CCCC3)n2Cc1ccccc1 |  |  | solubility [4]: > 200 µM; solubility [16]: 188 µM (≈ 75.8 µg/mL); Papp A→B at 5 µM [6]: 9.3 ×10⁻⁶ cm/s; Papp B→A at 5 µM [7]: 5.7 ×10⁻⁶ cm/s; fraction unbound [8]: 0.85; CLint scaled [10]: < 115 mL/min/kg; half-life [11]: > 1 h; solubility [17]: > 200 µM; fraction unbound [13]: 0.82; CLint scaled [14]: < 115 mL/min/kg; half-life [15]: > 1 h |

The next lines start with results.

| IC50 [1] | IC50 [2] | SMILES | other results |
| --- | --- | --- | --- |
| 24 nM | 228 nM | CCn1c(=O)[nH]c(=O)c2c1nc(Cc1cn3cc(C)sc3n1)n2C(C)C |  |
| 31 nM | 47 nM | CCn1c(=O)[nH]c(=O)c2c1nc(Cc1cn3cc(C)sc3n1)n2CC1CCC1 |  |
| 57 nM | 533 nM | CCn1c(=O)[nH]c(=O)c2c1nc(Cc1cn3cc(C)sc3n1)n2CCC(=O)OC |  |
| > 10000 nM | > 10000 nM | CCn1c(=O)[nH]c(=O)c2c1nc(Cc1cn3cc(C)sc3n1)n2CC1CCN(C)CC1 |  |
| > 10000 nM | > 10000 nM | CCn1c(=O)[nH]c(=O)c2c1nc(Cc1cn3cc(C)sc3n1)n2CC1CCNCC1 |  |
| 18 nM | 84 nM | CCn1c(=O)[nH]c(=O)c2c1nc(Cc1cn3cc(C)sc3n1)n2Cc1ccccn1 |  |
| > 10000 nM | > 10000 nM | CCn1c(=O)[nH]c(=O)c2c1nc(Cc1cn3cc(C)sc3n1)n2CC1CCN(C(C)C)CC1 |  |
| 22 nM | 66 nM | CCn1c(=O)[nH]c(=O)c2c1nc(Cc1cn3cc(C)sc3n1)n2Cc1cccc(C(=O)OC)c1 |  |
| 58 nM | 357 nM | CCn1c(=O)[nH]c(=O)c2c1nc(Cc1cn3cc(C)sc3n1)n2Cc1cccc(C(=O)O)c1 |  |
| 116 nM | 676 nM | CCn1c(=O)[nH]c(=O)c2c1nc(Cc1cn3cc(C)sc3n1)n2CCC=C(C)C |  |
